According to the supplement of paper PMC5770543:
± gives the standard deviation.

Tests used:
[1] = biological target: Toxoplasma gondii RH tachyzoites; assay: EC50 growth inhibition (48 h luciferase)
[2] = test system: Plasmodium falciparum 3D7; assay: % inhibition of schizont-to-ring transition vs DMSO; higher = more inhibition
How it was run: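 Tightly synchronised P. falciparum schizonts (about 40–42 hours post-invasion, 1% parasitemia, 2.5% hematocrit, AlbuMAX-supplemented RPMI) were exposed to compound at 1, 3 or 10 µM, with vehicle and positive controls. Cells were glutaraldehyde-fixed, Triton-permeabilised, stained with Hoechst 33342 and counted by flow cytometry (at least 100,000 events). Schizont-to-ring transition inhibition is new ring formation relative to vehicle controls, averaged over three experiments.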

[3] = test system: Toxoplasma gondii RH tachyzoites; assay: % growth inhibition vs DMSO (48 h luciferase); higher = more inhibition; settings: 10 µM
[4] = test system: Plasmodium falciparum 3D7; assay: EC50 growth inhibition (60 h, SYBR Green); settings: stage: ring-stage start
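For % growth inhibition vs DMSO (48 h luciferase) in this document: tested in triplicate wells of 96-well plates on confluent HFF monolayers, with 1% DMSO wells as negative control in four replicates.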

| Structure (SMILES) | EC50 growth inhibition [1] [nM] | % inhibition of schizont-to-ring transition ([2]; 1 µM) [%] | % inhibition of schizont-to-ring transition ([2]; 3 µM) [%] | % inhibition of schizont-to-ring transition ([2]; 10 µM) [%] | % growth inhibition [3] [%] | EC50 growth inhibition [4] [nM] |
| --- | --- | --- | --- | --- | --- | --- |
| CCOc1ccc(-n2cc(-c3ccccc3)c3c(SCc4cc(C)ccc4C)ncnc32)cc1 | 3170 | 1.01 | 7.47 | 15.8 | 86.5 ± 1.3 | – |
| CSc1ccccc1C(=O)Nc1nc(-c2ccccn2)cs1 | 849 | 23 | 26.9 | 40.1 | 99.44 ± 0.19 | 1710 |
| Oc1ccc(Cl)cc1CNc1nc2ccccc2[nH]1 | 1310 | 22.5 | 38.5 | 58.6 | 96.5 ± 1.9 | 1420 |
| COc1ccc(-c2nonc2NC(=O)c2cccc(Cl)c2)cc1OC | 35.3 | 36.5 | 56.1 | 71 | 84.3 ± 0.96 | 1170 |
| CCCCC(O)(c1ccc(Cl)cc1)C(CN1CCOCC1)c1ccc(Cl)cc1 (configuration not stated) | 5000 | 21 | 18.3 | 40.5 | 99.1 ± 0.71 | 2010 |
| Cc1cc(N(C)C)nc(Nc2ccc(NC(=O)Nc3ccccc3)cc2)n1 | 1990 | 41.8 | 56.5 | 71.1 | 95.4 ± 1.2 | 236 |
| COc1ccc2nc(C)cc(Nc3ccc(Cl)cc3)c2c1 | 556 | 24.7 | 39.5 | 56.8 | 99.3 ± 1 | 477 |
| O=C(Cc1ccccc1)NC(c1ccc(Cl)cc1)c1c(O)ccc2ccccc12 (configuration not stated) | 1020 | 0.685 | 26.1 | 67.8 | 100.2 ± 0.43 | 1880 |
